{"source": "patent US20210382058A1", "about": "“PATIENT SELECTION FOR TREATMENT OF MYC POSITIVE CANCERS WITH INDENOISOQUINOLINES” (Purdue Research Foundation, priority 2020, published 2021)", "key": {"[1]": {"test_system": "MYC protein expression in MCF-7 breast cancer cells", "experiment": "Western blotting of MYC protein level in MCF-7 cells", "format": "cell-based, human", "details": "Homo sapiens, MCF7; western blotting, MCF-7 cells, 0.5, 1, 2, and 4 μM, 24 hours; read-out: MYC Inhibition", "how_it_was_run": "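Immunoblotting with ECL detection quantified MYC, with GAPDH (1:2000) as reference and anti-MYC at 1:1000.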"}, "NCI-60 cancer cell lines": {"test_system": "NCI-60 cancer cell lines", "experiment": "NCI-60 cancer cell line drug screen (GI50, MGM)", "format": "cell-based, human", "details": "Homo sapiens", "procedure": "Cancer cells were incubated with the test compounds at five concentrations ranging from 100 μM to 10 nM for 48 h. […] The approximate average of GI50 values across the entire panel of NCI-60 cancer cell lines for each compound was recorded as the MGM value."}}, "note": "Like-named read-outs stand apart in the source and are kept apart here.", "data": [{"smiles": "COc1cc2c3c(n(CCCn4ccnc4)c(=O)c2cc1OC)-c1cc2c(cc1C3=O)OCO2", "note": "[Compound 42]", "values": [{"measurement": "minimal effective concentration", "setting": "[1]", "value": "0.5 to 1", "unit": "µM"}, {"measurement": "GI50", "setting": "NCI-60 cancer cell lines; 786-0, Renal Cancer, 786-0, read-out: Antiproliferative Activities [GI50 (μM)]", "value": "< 0.01", "unit": "µM"}, {"measurement": "GI50", "setting": "NCI-60 cancer cell lines; A498, Renal Cancer, A498, read-out: Antiproliferative Activities [GI50 (μM)]", "value": 7.17, "unit": "µM"}, {"measurement": "GI50", "setting": "NCI-60 cancer cell lines; A549, Non-Small Cell Lung Cancer, A549/ATCC, read-out: Antiproliferative Activities [GI50 (μM)]", "value": 10.5, "unit": "µM"}, {"measurement": "GI50", "setting": "NCI-60 cancer cell lines; ACHN, Renal Cancer, ACHN, read-out: Antiproliferative Activities [GI50 (μM)]", "value": "< 0.01", "unit": "µM"}, {"measurement": "GI50", "setting": "NCI-60 cancer cell lines; CAKI-1, Renal Cancer, CAKI-1, read-out: Antiproliferative Activities [GI50 (μM)]", "value": 0.32, "unit": "µM"}, {"measurement": "GI50", "setting": "NCI-60 cancer cell lines; CCRF-CEM, Leukemia, CCRF-CEM, read-out: Antiproliferative Activities [GI50 (μM)]", "value": "< 0.01", "unit": "µM"}, {"measurement": "GI50", "setting": "NCI-60 cancer cell lines; COLO 205, Colon Cancer, COLO 205, read-out: Antiproliferative Activities [GI50 (μM)]", "value": "> 100", "unit": "µM"}, {"measurement": "GI50", "setting": "NCI-60 cancer cell lines; DU-145, Prostate Cancer, DU-145, read-out: Antiproliferative Activities [GI50 (μM)]", "value": "< 0.01", "unit": "µM"}, {"measurement": "GI50", "setting": "NCI-60 cancer cell lines; EKVX, Non-Small Cell Lung Cancer, EKVX, read-out: Antiproliferative Activities [GI50 (μM)]", "value": 70.7, "unit": "µM"}, {"measurement": "GI50", "setting": "NCI-60 cancer cell lines; HCC 2998, Colon Cancer, HCC-2998, read-out: Antiproliferative Activities [GI50 (μM)]", "value": 29.3, "unit": "µM"}, {"measurement": "GI50", "setting": "NCI-60 cancer cell lines; HCT-15, Colon Cancer, HCT-15, read-out: Antiproliferative Activities [GI50 (μM)]", "value": "> 100", "unit": "µM"}, {"measurement": "GI50", "setting": "NCI-60 cancer cell lines; HCT-116, Colon Cancer, HCT-116, read-out: Antiproliferative Activities [GI50 (μM)]", "value": 0.17, "unit": "µM"}, {"measurement": "GI50", "setting": "NCI-60 cancer cell lines; HL-60, read-out: Antiproliferative Activities [GI50 (μM)]", "value": 0.02, "unit": "µM"}, {"measurement": "GI50", "setting": "NCI-60 cancer cell lines; HOP-62, Non-Small Cell Lung Cancer, HOP-62, read-out: Antiproliferative Activities [GI50 (μM)]", "value": "< 0.01", "unit": "µM"}, {"measurement": "GI50", "setting": "NCI-60 cancer cell lines; HOP-92, Non-Small Cell Lung Cancer, HOP-92, read-out: Antiproliferative Activities [GI50 (μM)]", "value": 0.19, "unit": "µM"}, {"measurement": "GI50", "setting": "NCI-60 cancer cell lines; HT-29, Colon Cancer, HT29, read-out: Antiproliferative Activities [GI50 (μM)]", "value": "> 100", "unit": "µM"}, {"measurement": "GI50", "setting": "NCI-60 cancer cell lines; Hs-578T, Breast Cancer, HS 578T, read-out: Antiproliferative Activities [GI50 (μM)]", "value": 54.2, "unit": "µM"}, {"measurement": "GI50", "setting": "NCI-60 cancer cell lines; IGROV-1, Ovarian Cancer, IGROV1, read-out: Antiproliferative Activities [GI50 (μM)]", "value": 6.72, "unit": "µM"}, {"measurement": "GI50", "setting": "NCI-60 cancer cell lines; K562, Leukemia, K-562, read-out: Antiproliferative Activities [GI50 (μM)]", "value": 1.49, "unit": "µM"}, {"measurement": "GI50", "setting": "NCI-60 cancer cell lines; KM12, Colon Cancer, KM12, read-out: Antiproliferative Activities [GI50 (μM)]", "value": "> 100", "unit": "µM"}, {"measurement": "GI50", "setting": "NCI-60 cancer cell lines; LOX IMVI, Melanoma, LOX IMVI, read-out: Antiproliferative Activities [GI50 (μM)]", "value": 0.06, "unit": "µM"}, {"measurement": "GI50", "setting": "NCI-60 cancer cell lines; Leukemia, SR, read-out: Antiproliferative Activities [GI50 (μM)]", "value": "< 0.01", "unit": "µM"}, {"measurement": "GI50", "setting": "NCI-60 cancer cell lines; MCF7, Breast Cancer, MCF7, read-out: Antiproliferative Activities [GI50 (μM)]", "value": "< 0.01", "unit": "µM"}, {"measurement": "GI50", "setting": "NCI-60 cancer cell lines; MDA-MB-231, Breast Cancer, MDA-MB-231/ATCC, read-out: Antiproliferative Activities [GI50 (μM)]", "value": 77.8, "unit": "µM"}, {"measurement": "GI50", "setting": "NCI-60 cancer cell lines; MDA-MB-435, Melanoma, MDA-MB-435, read-out: Antiproliferative Activities [GI50 (μM)]", "value": "> 100", "unit": "µM"}, {"measurement": "GI50", "setting": "NCI-60 cancer cell lines; MOLT-4, Leukemia, MOLT-4, read-out: Antiproliferative Activities [GI50 (μM)]", "value": "< 0.01", "unit": "µM"}, {"measurement": "GI50", "setting": "NCI-60 cancer cell lines; Malme-3M, Melanoma, MALME-3M, read-out: Antiproliferative Activities [GI50 (μM)]", "value": 1.6, "unit": "µM"}, {"measurement": "GI50", "setting": "NCI-60 cancer cell lines; Melanoma, M14, read-out: Antiproliferative Activities [GI50 (μM)]", "value": "< 0.01", "unit": "µM"}, {"measurement": "GI50", "setting": "NCI-60 cancer cell lines; NCI-H23, Non-Small Cell Lung Cancer, NCI-H23, read-out: Antiproliferative Activities [GI50 (μM)]", "value": 0.09, "unit": "µM"}, {"measurement": "GI50", "setting": "NCI-60 cancer cell lines; NCI-H226, Non-Small Cell Lung Cancer, NCI-H226, read-out: Antiproliferative Activities [GI50 (μM)]", "value": 0.37, "unit": "µM"}, {"measurement": "GI50", "setting": "NCI-60 cancer cell lines; NCI-H322M, Non-Small Cell Lung Cancer, NCI-H322M, read-out: Antiproliferative Activities [GI50 (μM)]", "value": "> 100", "unit": "µM"}, {"measurement": "GI50", "setting": "NCI-60 cancer cell lines; NCI-H460, Non-Small Cell Lung Cancer, NCI-H460, read-out: Antiproliferative Activities [GI50 (μM)]", "value": "< 0.01", "unit": "µM"}, {"measurement": "GI50", "setting": "NCI-60 cancer cell lines; NCI-H522, Non-Small Cell Lung Cancer, NCI-H522, read-out: Antiproliferative Activities [GI50 (μM)]", "value": "< 0.01", "unit": "µM"}, {"measurement": "GI50", "setting": "NCI-60 cancer cell lines; OVCAR-3, Ovarian Cancer, OVCAR-3, read-out: Antiproliferative Activities [GI50 (μM)]", "value": 16.4, "unit": "µM"}, {"measurement": "GI50", "setting": "NCI-60 cancer cell lines; OVCAR-4, Ovarian Cancer, OVCAR-4, read-out: Antiproliferative Activities [GI50 (μM)]", "value": "> 100", "unit": "µM"}, {"measurement": "GI50", "setting": "NCI-60 cancer cell lines; OVCAR-5, Ovarian Cancer, OVCAR-5, read-out: Antiproliferative Activities [GI50 (μM)]", "value": "> 100", "unit": "µM"}, {"measurement": "GI50", "setting": "NCI-60 cancer cell lines; OVCAR-8, Ovarian Cancer, OVCAR-8, read-out: Antiproliferative Activities [GI50 (μM)]", "value": 1.03, "unit": "µM"}, {"measurement": "GI50", "setting": "NCI-60 cancer cell lines; Ovarian Cancer, NCl/ADR-RES, read-out: Antiproliferative Activities [GI50 (μM)]", "value": 0.35, "unit": "µM"}, {"measurement": "GI50", "setting": "NCI-60 cancer cell lines; Prostate Cancer, PC-3, read-out: Antiproliferative Activities [GI50 (μM)]", "value": 34.9, "unit": "µM"}, {"measurement": "GI50", "setting": "NCI-60 cancer cell lines; RPMI-8226, Leukemia, RPMI-8226, read-out: Antiproliferative Activities [GI50 (μM)]", "value": "< 0.01", "unit": "µM"}, {"measurement": "GI50", "setting": "NCI-60 cancer cell lines; RXF 393, Renal Cancer, RXF 393, read-out: Antiproliferative Activities [GI50 (μM)]", "value": 8, "unit": "µM"}, {"measurement": "GI50", "setting": "NCI-60 cancer cell lines; Renal Cancer, U0-31, read-out: Antiproliferative Activities [GI50 (μM)]", "value": 0.03, "unit": "µM"}, {"measurement": "GI50", "setting": "NCI-60 cancer cell lines; SF-295, CNS Cancer, SF-295, read-out: Antiproliferative Activities [GI50 (μM)]", "value": "< 0.01", "unit": "µM"}, {"measurement": "GI50", "setting": "NCI-60 cancer cell lines; SF-539, CNS Cancer, SF-539, read-out: Antiproliferative Activities [GI50 (μM)]", "value": "< 0.01", "unit": "µM"}, {"measurement": "GI50", "setting": "NCI-60 cancer cell lines; SK-MEL-2, Melanoma, SK-MEL-2, read-out: Antiproliferative Activities [GI50 (μM)]", "value": "> 100", "unit": "µM"}, {"measurement": "GI50", "setting": "NCI-60 cancer cell lines; SK-MEL-5, Melanoma, SK-MEL-5, read-out: Antiproliferative Activities [GI50 (μM)]", "value": 0.22, "unit": "µM"}, {"measurement": "GI50", "setting": "NCI-60 cancer cell lines; SK-MEL-28, Melanoma, SK-MEL-28, read-out: Antiproliferative Activities [GI50 (μM)]", "value": "> 100", "unit": "µM"}, {"measurement": "GI50", "setting": "NCI-60 cancer cell lines; SK-OV-3, Ovarian Cancer, SK-OV-3, read-out: Antiproliferative Activities [GI50 (μM)]", "value": "< 0.01", "unit": "µM"}, {"measurement": "GI50", "setting": "NCI-60 cancer cell lines; SN12C, Renal Cancer, SN12C, read-out: Antiproliferative Activities [GI50 (μM)]", "value": "< 0.01", "unit": "µM"}, {"measurement": "GI50", "setting": "NCI-60 cancer cell lines; SNB-19, CNS Cancer, SNB-19, read-out: Antiproliferative Activities [GI50 (μM)]", "value": "< 0.01", "unit": "µM"}, {"measurement": "GI50", "setting": "NCI-60 cancer cell lines; SNB-75, CNS Cancer, SNB-75, read-out: Antiproliferative Activities [GI50 (μM)]", "value": 0.23, "unit": "µM"}, {"measurement": "GI50", "setting": "NCI-60 cancer cell lines; SW-620, Colon Cancer, SW-620, read-out: Antiproliferative Activities [GI50 (μM)]", "value": 0.06, "unit": "µM"}, {"measurement": "GI50", "setting": "NCI-60 cancer cell lines; T47D, Breast Cancer, T-47D, read-out: Antiproliferative Activities [GI50 (μM)]", "value": "< 0.01", "unit": "µM"}, {"measurement": "GI50", "setting": "NCI-60 cancer cell lines; TK-10, Renal Cancer, TK-10, read-out: Antiproliferative Activities [GI50 (μM)]", "value": 73.7, "unit": "µM"}, {"measurement": "GI50", "setting": "NCI-60 cancer cell lines; U-251, CNS Cancer, U251, read-out: Antiproliferative Activities [GI50 (μM)]", "value": "< 0.01", "unit": "µM"}, {"measurement": "GI50", "setting": "NCI-60 cancer cell lines; UACC-62, Melanoma, UACC-62, read-out: Antiproliferative Activities [GI50 (μM)]", "value": "< 0.01", "unit": "µM"}, {"measurement": "GI50", "setting": "NCI-60 cancer cell lines; UACC-257, Melanoma, UACC-257, read-out: Antiproliferative Activities [GI50 (μM)]", "value": "> 100", "unit": "µM"}]}]}
